Article PMC4143292, “An Enzymatic Platform for the Synthesis of Isoprenoid Precursors” (PLoS ONE, 2014)

Target: T1, DPM-DC (diphosphomevalonate decarboxylase) (Streptococcus pneumoniae, UniProt A0A0H2UNP0)
T1 construct: gene mvaD; N-terminal His9-GST tag removed with PreScission protease; expressed in E. coli BL21(DE3)
T1 sequence (A0A0H2UNP0 1-317): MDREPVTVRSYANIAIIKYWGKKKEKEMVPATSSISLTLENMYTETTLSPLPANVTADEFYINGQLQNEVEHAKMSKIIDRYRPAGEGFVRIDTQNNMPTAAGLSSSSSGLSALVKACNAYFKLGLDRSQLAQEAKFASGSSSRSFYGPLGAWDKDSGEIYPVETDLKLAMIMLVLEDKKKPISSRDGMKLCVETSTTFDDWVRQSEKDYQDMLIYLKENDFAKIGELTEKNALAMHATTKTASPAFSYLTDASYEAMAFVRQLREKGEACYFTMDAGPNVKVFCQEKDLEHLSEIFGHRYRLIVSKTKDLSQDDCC
Assay: PK/LDH-coupled NADH oxidation
Assay type: biochemical
Settings: ATP 2.0 mM, MgCl2 1.0 mM + nucleotide, KCl 50 mM, Hepes pH 8.0, 25 C

How did the “PK/LDH-coupled NADH oxidation” value turn out when `C[C@@](O)(CCOP(=O)(O)OP(=O)(O)O)CC(=O)O` [DPM] was run?
The value was “DPM formation was assayed by adding an aliquot the DPM-synthesis reaction into a DPM decarboxylase”.
